# In PMC11920571, “Esc peptides and derivatives potentiate the activity of CFTR with gating defects and display antipseudomonal activity in cystic fibrosis-like lung disease” (Cellular and Molecular Life Sciences: CMLS, 2025):
# Non-standard residues stand in square brackets, D forms with d. Residues, ends and D or L forms follow the SMILES beside them. No end group written: not given here. Aib = CC(C)(N)C(=O)O
# How the values were obtained:
# G1349D-CFTR = target: T1, G1349D-CFTR (Homo sapiens, UniProt P13569, G1349D); assay: TEER/transepithelial conductance in G1349D-FRT cells; type: cell-based; settings: 20 µM FSK + 10 µM peptide, 10 min, n ≥ 6
# T1 construct: expressed in transfected cells
# T1 sequence (P13569 whole entry G1349D): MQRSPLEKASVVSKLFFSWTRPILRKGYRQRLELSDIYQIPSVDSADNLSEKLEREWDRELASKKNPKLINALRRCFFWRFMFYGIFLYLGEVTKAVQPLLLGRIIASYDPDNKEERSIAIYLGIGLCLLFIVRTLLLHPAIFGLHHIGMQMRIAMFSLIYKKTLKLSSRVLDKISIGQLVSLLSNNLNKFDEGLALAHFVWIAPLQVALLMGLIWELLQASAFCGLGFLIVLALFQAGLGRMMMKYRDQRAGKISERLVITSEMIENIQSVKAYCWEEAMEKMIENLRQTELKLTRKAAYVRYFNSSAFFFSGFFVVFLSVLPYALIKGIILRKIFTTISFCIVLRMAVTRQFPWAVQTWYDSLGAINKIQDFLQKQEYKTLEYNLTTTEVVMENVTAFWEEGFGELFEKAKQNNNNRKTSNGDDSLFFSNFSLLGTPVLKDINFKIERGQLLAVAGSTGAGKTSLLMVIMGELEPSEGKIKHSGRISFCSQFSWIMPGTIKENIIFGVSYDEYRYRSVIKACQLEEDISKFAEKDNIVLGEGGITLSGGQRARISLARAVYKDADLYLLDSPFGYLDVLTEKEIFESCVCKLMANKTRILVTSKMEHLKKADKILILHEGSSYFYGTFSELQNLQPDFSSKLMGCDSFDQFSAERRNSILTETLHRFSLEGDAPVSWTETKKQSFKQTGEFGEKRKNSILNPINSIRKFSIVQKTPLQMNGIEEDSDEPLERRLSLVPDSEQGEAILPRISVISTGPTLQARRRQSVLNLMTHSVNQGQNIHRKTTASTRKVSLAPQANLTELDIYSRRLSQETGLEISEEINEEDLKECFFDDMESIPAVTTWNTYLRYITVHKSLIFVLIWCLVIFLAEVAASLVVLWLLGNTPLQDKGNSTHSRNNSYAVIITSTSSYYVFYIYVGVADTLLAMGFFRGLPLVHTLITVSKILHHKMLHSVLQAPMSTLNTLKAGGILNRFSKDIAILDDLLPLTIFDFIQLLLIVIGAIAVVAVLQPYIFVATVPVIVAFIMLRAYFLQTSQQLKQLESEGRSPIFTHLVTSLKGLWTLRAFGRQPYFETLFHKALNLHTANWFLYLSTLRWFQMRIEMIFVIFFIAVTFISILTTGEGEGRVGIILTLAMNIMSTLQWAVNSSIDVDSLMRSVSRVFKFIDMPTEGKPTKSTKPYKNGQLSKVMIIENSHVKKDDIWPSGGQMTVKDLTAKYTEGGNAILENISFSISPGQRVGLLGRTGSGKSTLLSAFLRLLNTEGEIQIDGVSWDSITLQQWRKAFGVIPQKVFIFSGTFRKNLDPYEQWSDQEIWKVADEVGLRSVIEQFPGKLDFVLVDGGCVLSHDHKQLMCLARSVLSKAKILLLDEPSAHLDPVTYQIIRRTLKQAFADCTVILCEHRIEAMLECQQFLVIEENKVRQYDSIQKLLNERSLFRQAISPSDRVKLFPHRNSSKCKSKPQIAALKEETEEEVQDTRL
# Description: (§1) To evaluate the effect of the peptides on the ion current controlled by CFTR, the transepithelial conductance was measured in epithelia formed by FRT expressing CFTR with different mutation. Cells were seeded on permeable supports (24 Millicell plates PSHT01QR1) and then incubated in their standard culture medium. Cells expressing F508del mutation were pretreated with 1 μM VX-809 to deliver the defective protein to the plasma membrane. After 24 h, the medium was replaced with saline solution containing (in mM): 130 NaCl, 2.7 KCl, 1.5 KH2PO4, 1 CaCl2, 0.5 MgCl2, 10 glucose, 10 Na-Hepes (pH, 7.4), which was added to both apical and basolateral compartments of the permeable supports. Initially, TEER was measured in basal conditions without CFTR activation, using the epithelial voltmeter (MILLICELL ERS-2, Millipore Burlington, MA). Afterwards, 20 μM FSK + 10 μM GEN (as positive control) or FSK+ peptides at the desired concentration were added on the apical side of the epithelium and TEER measurement was performed at 37 °C after 10 min from the addition of the compounds. Finally, TEER was measured after the addition of 30 μM PPQ102 to the apical side of the epithelium, to inhibit CFTR. From the values of TEER obtained before and after CFTR inhibition, the CFTR-dependent TEER was calculated, for each condition. All TEER values were converted to transepithelial conductance (TEEC) using the formula TEEC = 1/TEER [68].
# G551D-CFTR = target: T2, G551D-CFTR (Homo sapiens, UniProt P13569, G551D); assay: TEER/transepithelial conductance in G551D-FRT cells; type: cell-based; settings: 20 µM FSK + 10 µM peptide, 10 min, n ≥ 6
# T2 construct: expressed in transfected cells
# T2 sequence (P13569 whole entry G551D): as the sequence (P13569 whole entry G1349D) above, with G551D, D1349G counted along it
# Description: as §1
# [1] = test system: Gram-negative bacterial strains and Staphylococcus aureus; assay: MIC determination, summary over the strain panel; type: cell-based; settings: summary of Table 3
# Description: Peptides were tested against the Gram-negative Escherichia coli ATCC 25922, Ainetobacter baumannii ATCC 19606, P. aeruginosa ATCC 27853, P. aeruginosa PAO1; and the Gram-positive S. aureus ATCC 25923, MDR#1, MDR#2, MDR#3 and MDR#4. The MIC values were determined as previously reported. Briefly, bacteria were grown at 37 °C in Luria-Bertani broth (LB) until an optical density (OD) of 0.8 was reached (λ=590 nm). Aliquots of bacteria (50 µL) were added to each well of a 96-multiwell plate containing serial dilutions of the tested peptides in Mueller Hinton broth (MH). The final cell concentration was 1x10^6 CFU/ml.
# P. aeruginosa PAO1 [2] = assay: Murine lung infection model, wild-type littermates; type: in vivo, mice; settings: 0.1 mg/kg (20 μM) i.t. 1 h after i.t. ~3 x 10^6 CFU PAO1, lungs at 24 h, three independent experiments
# Description: (§2) The animal experiments were performed according to a protocol (protocol 23083347) approved by the Institutional Animal Care and Use Committee (IACUC) of the University of Pittsburgh based on the NIH guide for the care and use of laboratory animals. Transgenic mice with expression of the protein-coding region of the mouse Scnn1b (β-ENaC) and driven by rat airway-specific Scgb1a1 (also called the Clara cell secretory protein) gene were previously described and obtained from Dr. Wanda O'Neal from the University of North Carolina at Chapel Hill. β-ENaC mice in C57BL/6 genetic background were maintained in heterozygous conditions and continuously bred with C57BL/6 wild-type mice. Genotyping was performed for all pups to identify their respective genotypes. Mice expressing β-ENaC and their wild-type littermates at the same ages were used for experiments. Seven-week-old female and male mice were anesthetized by isoflurane inhalation and instilled intratracheally with ~3 x 10^6 CFU of P. aeruginosa PAO1 in 50 µl PBS. […] Control mice were given 50 µl of PBS without peptide. After 24 h, lungs were harvested, four right lobes of each mouse lung were homogenised, serial diluted to determine the total lung bacterial burden, according to the published method.
# P. aeruginosa PAO1 [3] = assay: Murine lung infection model, β-ENaC transgenic mice; type: in vivo; settings: for lowering of lung bacterial burden (CFU): 0.1 mg/kg (20 μM) i.t. 1 h after i.t. ~3 x 10^6 CFU PAO1, lungs at 24 h, three independent experiments
# Description: as §2
# P. aeruginosa = settings: C57BL/6 mice, i.t. instillation at 0.1 mg/Kg (corresponding to 20 μM); cited from earlier work
# From the text: In the last years, we identified two antimicrobial peptides (AMPs), Esculentin-1a(1–21)NH2 [Esc(1–21)] and its diastereomer Esc(1–21)−1c (Esc peptides, Table 1), with a strong activity against the free-living and sessile forms of P. aeruginosa and with the ability to accelerate recovery of damaged bronchial epithelium.
# F508del-CFBE41o- cells = settings: 20 μM peptide, 24 h, CCK-8, absorbance 450 nm
# Description: The Cell Counting Kit 8 (CCK-8) assay was performed as follows to assess cell viability. About 1×10^4 F508del-CFBE41o- cells were seeded in each well of a 96-well plate and incubated at 37 °C and 5% CO2. After 24 h, the medium was replaced by MEM supplemented with 2 mM L-glutamine and containing each peptide at different concentrations. The plate was incubated for 24 h and subsequently 10 μl of CCK-8 reagent were added to each well. After 2 h incubation, the absorbance of each well was measured at 450 nm using a microplate reader (Infinite M200; Tecan, Salzburg, Austria).
# P. aeruginosa PAO1 [4] = assay: Co-culture (biotic biofilm) on polarized airway epithelium at ALI; type: cell-based; settings: 20 μM peptide in PBS for 2 h; PAO1 grown 6 h on polarized homozygous F508del airway epithelium at ALI; vs PBS
# Description: This assay was performed using co-cultures of polarized and well-differentiated human bronchial epithelial cells derived from a homozygous F508del patient and P. aeruginosa PAO1 grown to a log phase. Polarized human epithelia in transwell permeable supports and maintained in ALI culture were inoculated with P. aeruginosa PAO1 in 50 µl of cell culture medium (initial inoculum of 200 bacterial cells per ALI culture insert, according to [75]) at the apical side of the supports for 1 h to allow attachment of the bacteria to the epithelium in ALI culture. Unattached bacteria were removed and the supports incubated (37 °C; 5% CO₂) for 5 h prior to the addition of peptide. Each peptide, at 20 μM, diluted in 100 µl PBS, was added for 2 h. After a total of 8 h, the airways surface liquid was collected and aliquots poured on plates for counting. Afterwards, the epithelium was disrupted by adding 150µl Tripsin-EDTA and incubated for 15 min. Subsequently, 200 µl Triton X-100 (0.1%) was added and the supports incubated again for 15 min. Serial dilution and counting of bacterial cells was performed on tryptic soy agar plates to determine the number of CFU.
# [5] = test system: intracellular calcium in null FRT cells; assay: Microplate reader Fluo-4 Ca2+ assay; type: cell-based, rat; settings: peptides 10 µM each, UTP 100 µM (Fig. 7) or 10 µM (method), acute addition
# Description: Experiments for the evaluation of intracellular calcium mobilization were performed using an automated micro-plate reader (FluoStar) equipped with syringe pumps and optical excitation/emission filters (500/535 nm). FRT cells were cultured until confluence in 96-well microplates. Before starting the assay, cells were washed 3 times with complete PBS (200 μl/wash) and then loaded for 1 h at 37 °C with 5 μM Fluo-4/AM (Thermo Fisher Scientific) in PBS containing 10 mM glucose, 0.5 mM sulfinpyrazone and 1% fetal bovine serum. After loading, cells were washed twice with PBS (120 μl/wash) and incubated for 15 min at 37 °C with 100 μl of PBS plus 10 mM glucose and 0.5 mM sulfinpyrazone. The assay was run on one well at a time by programming the plate reader to acquire the fluorescence emitted from each well every 0.2 s for 120 s. At 2.8 s from the start of reading, the plate reader injected 100 μl of PBS (with glucose and sulfinpyrazone) containing vehicle alone (DMSO), peptides (10 µM each) or UTP (10 µM).
molecule,measurement,setting,value
"Gly-Ile-Phe-Ser-Lys-Leu-Ala-Gly-Lys-Lys-Ile-Lys-Asn-Leu-Leu-Ile-phosphoSer-Gly-Leu-Lys-Gly-NH2 [D-phosphoEsc, isoform carrying a D-leucine at position 14 and D-phosphoserine at position 17]",CFTR-mediated conductance (∆G) relative to FSK alone,G1349D-CFTR,at least 3 fold
same,CFTR-mediated conductance (∆G) relative to FSK alone,G551D-CFTR,at least 3 fold
"GIFSKLAGKKIKNLLIEGLKG-NH2 [Esc_Glu-17, analog containing L-Glutamic acid at position 17]","ability to inhibit bacterial growth, in words",[1],comparable to the reference Esc(1–21)−1c
same,variation in CFTR-mediated conductance,G1349D-CFTR,no variation in CFTR-mediated conductance
same,variation in CFTR-mediated conductance,G551D-CFTR,no variation in CFTR-mediated conductance
"GIFSKLAGKKIKNLLISGLKG-NH2 [Esc(1–21)−1c, diastereomer of Esc(1–21)]",reduction in the number of lung bacterial cells (CFU),P. aeruginosa PAO1 [2],~ 2 log10
same,lowering of lung bacterial burden (CFU),P. aeruginosa PAO1 [3],~ 2 log10
same,effect on lung bacterial burden,P. aeruginosa,reduce lung bacterial burden
"GIFSKLAGKKIKNLLIEGLKG-NH2 [Esc-1C_DGlu-17, analog containing D-Glutamic acid at position 17]",MIC increase versus reference Esc(1–21)−1c,[1],~ 4 fold
same,variation in CFTR-mediated conductance,G1349D-CFTR,no variation in CFTR-mediated conductance
same,variation in CFTR-mediated conductance,G551D-CFTR,no variation in CFTR-mediated conductance
"CC[C@H](C)[C@H](NC(=O)CN)C(=O)N[C@@H](Cc1ccccc1)C(=O)N[C@@H](CO)C(=O)N[C@@H](CCCCN)C(=O)N[C@@H](CC(C)C)C(=O)N[C@@H](C)C(=O)NC(C)(C)C(=O)N[C@@H](CCCCN)C(=O)N[C@@H](CCCCN)C(=O)N[C@H](C(=O)N[C@@H](CCCCN)C(=O)N[C@@H](CC(N)=O)C(=O)N[C@@H](CC(C)C)C(=O)N[C@@H](CC(C)C)C(=O)N[C@H](C(=O)N[C@@H](CO)C(=O)NCC(=O)N[C@@H](CC(C)C)C(=O)N[C@@H](CCCCN)C(=O)NCC(N)=O)[C@@H](C)CC)[C@@H](C)CC [Esc_Aib-8, [Aib^8]-Esc(1–21)] (H-GIFSKLA[Aib]KKIKNLLISGLKG-NH2; N-terminus assumed)",reduction in the number of lung bacterial cells (CFU),P. aeruginosa PAO1 [2],~ 2 log10
same,lowering of lung bacterial burden (CFU),P. aeruginosa PAO1 [3],~ 2 log10
same,"efficacy in lowering lung bacterial load, comparison in words","P. aeruginosa PAO1 [3]; 0.1 mg/kg i.t., lungs at 24 h",trend slightly stronger than that of Esc(1–21)−1c
same,viable cells,F508del-CFBE41o- cells,more than 90%
same,"ability to inhibit bacterial growth, in words",[1],the most active one against Gram-negative bacteria
same,reduction of bacterial load (ASL plus intracellular CFU),P. aeruginosa PAO1 [4],~2 log10-unit
colistin [reference compound],reduction in the number of lung bacterial cells (CFU),P. aeruginosa PAO1 [2],~ 2 log10
O=c1ccn([C@@H]2O[C@H](COP(=O)(O)OP(=O)(O)OP(=O)(O)O)[C@@H](O)[C@H]2O)c(=O)[nH]1 [UTP],change in Fluo-4 fluorescence (intracellular calcium),[5],marked and rapid increase in fluorescence
